# Assay results as given in PMC10687071 (The Journal of Biological Chemistry, 2023).
# Biological target: T1, PAS domain of EAG1 channels (Mus musculus, UniProt Q60603)
# T1 construct: DNA encoding PAS (residues 7–136) of mouse EAG1 channels (GI # Q60603); 6-His (N); TEV protease cleavage site (N); made in house; host or cells: BL21 (DE3) Escherichia coli
# T1 sequence (Q60603 7-136): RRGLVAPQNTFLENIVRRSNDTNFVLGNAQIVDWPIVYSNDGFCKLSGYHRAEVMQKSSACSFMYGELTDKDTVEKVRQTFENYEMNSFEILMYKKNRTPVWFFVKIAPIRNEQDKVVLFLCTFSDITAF
# Assay: Surface plasmon resonance, PAS domain immobilized on CM5 chip
# Format: binding
# Settings: imipramine 1, 10 and 30 μM; concentration-dependent increase in SPR response; affinity not determined
# Procedure: DNA encoding PAS (residues 7–136) of mouse EAG1 channels (GI # Q60603) was synthesized by BioBasic and subcloned into pETM11 bacterial expression vector containing an N-terminal 6-His affinity tag followed by a tobacco etch virus (TEV) protease cleavage site. The DNA sequences were verified by sequencing (Genewiz). The PAS domains were expressed in BL21 (DE3) Escherichia coli cells as previously described ([25], [63]). The cells were grown at 37 °C to an optical density at 600 nm of 0.6 to 0.8, induced with IPTG at 18 °C overnight and harvested by centrifugation. The cells were resuspended in 150 mM KCl, 1 mM TCEP, 1 mM ABSF, 2.5 mg/ml DNaseI and 30 mM HEPES, pH 7.5. Cells were lysed with an Emulsiflex-C5 (Avestin). Insoluble protein was separated by centrifugation in 45 Ti rotor at 30,000 rpm for 1 h at 4 °C. The PAS domains were purified by Ni^2+ affinity chromatography using HisTrap HP column (Cytiva) and eluted on a linear gradient to 500 mM imidazole. The protein was further purified on a Superdex 200 Increase 10/300 column (Cytiva) equilibrated with 150 mM KCl, 1 mM TCEP, 10% glycerol, and 30 mM HEPES, pH 7.5. The protein concentration was determined with Bradford Protein Assay Kit (Pierce).
# All SPR binding experiments were performed on a CM5 chip (Cytiva) at 25 °C using a Biacore T200 Instrument (GE Healthcare). […]
compound,measurement,value
CN(C)CCCN1c2ccccc2CCc2ccccc21 [imipramine],SPR binding to the immobilized PAS domain,directly binds
